Marks after values point to notes of the source that are not given here.

One test deals with IFN-γ. As to the kind of experiment: Real-time RT-PCR gene expression in CNS of MOG induced EAE: IFN-γ. In kind it is in vivo, mouse. Particulars: 40 mg/kg p.o., day 31, over naive animals. The procedure: (§1) Total RNA is prepared using SV total RNA isolation system (Promega). The brains and spinal cords, which were removed on day 31 from five animals treated with vehicle (i.e. untreated) or 40 mg/kg p.o. of compound 18F (i.e. treated) in the MOG-induced EAE study, were homogenized in lysis buffer. The lysates were transferred to an RNA isolation column, treated with DNAse, washed and eluted according to kit instructions. RNA concentrations were determined using GeneQuant II (Pharmacia-Amersham). Complementary DNA (cDNA) was synthesized from total RNA using […] II reverse transcriptase (Life Technologies). […] Quantitative real-time RT-PCR included 1 μl of the cDNA, 300 nM of the appropriate forward and reverse primers (according to the gene monitored) and 7.5 μl of the reaction mix containing buffer, nucleotides, Taq polymerase and SYBER green (SYBER Green master mix, Applied Biosystems), in a total reaction volume of 15 μl. […] During each annealing step, the amount of the amplified product was measured by the fluorescence of the double strand DNA binding dye, SYBER Green. The cycle of threshold (CT), representing the PCR cycle at which an increase in fluorescence above a baseline signal can be first detected, was determined for each product. […] Results were expressed as fold increase of gene expression in treated or untreated animals above the naive animals. […]
A general note: Real-time PCR tracks product formation cycle by cycle.

Another test concerns TNF-α. As to the kind of experiment: Real-time RT-PCR gene expression in CNS of MOG induced EAE: TNF-α. The test is classed as in vivo, mouse. Conditions: 40 mg/kg p.o., day 31; over naive animals. The procedure:
as §1

Another test has as its system MCP-1. As to the kind of experiment: Real-time RT-PCR gene expression in CNS of MOG induced EAE: MCP-1. The test is classed as in vivo, mouse. Particulars: 40 mg/kg p.o., day 31, over naive animals. The protocol:
as §1

A further test relates to 400 Gene Array. Kind of test: Gene array analysis of spinal cords, MOG induced EAE. In kind it is in vivo, mouse. Conditions: out of the 400 genes tested. The protocol: In an additional study, the gene expression profiling was performed using a 400 Gene Array series kit of SuperArray Bioscience Corporation according to manufacturer protocol and RNA extracted from spinal cords of treated or untreated animals, as above described. The scanned data were converted to mRNA expression levels and analyzed using two softwares, ScanAlayze and GEArray Analyzer. […] The genes so identified will be further analyzed by real time RT-PCR at other time points during disease progression. It is interesting to note that the genes whose expression is altered in MOG induced EAE animals following treatment with compounds of the invention broadly speaking encode for proteins involved in the immune system, such as STAT proteins which are involved in signal transduction of several cytokines and growth factors, JAK kinases, β2-microglobulin, TNF-receptor superfamily, calmodulins, and cyclin-dependent kinases.

The test system of a further test is RAW 264.7 macrophages. As to the kind of experiment: NO secretion of LPS activated RAW 264.7 macrophages (ELISA). The test is classed as cell-based. Conditions: Mus musculus, RAW264.7, 24 hrs after LPS stimulation. The protocol:
RAW 264.7 macrophages, a mouse cell line (ATCC # TIB 71), were grown in Dulbecco's modified Eagle's medium (DMEM) with 4 mM L-glutamine adjusted to contain 1.5 g/L sodium bicarbonate, 4.5 g/L glucose, and 10% heat inactivated fetal bovine serum. Cells were grown in tissue culture flasks and seeded at appropriate density into 6 wells tissue culture plates. Four million Raw cells in half a milliliter were stimulated with 1 μg/ml Lipopolysaccharide E. coli 055:B5 (DIFCO Laboratories). The mouse macrophages were pre-treated for one hour with controls or 10 μM of test compounds, and later on activated with LPS. RNA samples were extracted from the cells 3 hrs after activation and iNOS gene expression levels were analyzed by real-time RT-PCR as previously described. For western blot analysis, compounds were tested at 1, 5 and 10 μM and cells were harvested 24 hrs after LPS stimulation. Supernatant were collected and NO secretion was analyzed using ELISA. Cells were washed 3 times with cold PBS, scrapped and lyzed in 100 μl cell lysis buffer containing 20 mM HEPES, pH 7.6, 150 mM NaCl, 1.5 mM MgCl2, 0.2 mM EDTA, 1% Triton X-100, 10% glycerol, 1 mM DTT, 1 mM PMSF, 10 μg/ml aprotinin. 5 µg/ml leupeptin, 10 mM p-nitrophenyl phosphate, 100 mM β-glycerophosphate, 1 mM sodium fluoride, and 0.1 μM sodium orthovanadate. Cells were lyzed on ice for 10 minutes before further processing. […]
Background: ELISA stands for enzyme-linked immunosorbent assay.

Test [1] relates to Taxol® induced neuropathic pain. As to the kind of experiment: Taxol® induced neuropathic pain. In kind it is in vivo, Sprague Dawley rats. The procedure:
Male Sprague Dawley rats (average body weight 150-200 g, Harlan, Israel) were administered i.p. with 6 mg/kg Taxol® (Bristol Myers Squibb, USA) every other day for 9 days. On day 13, baseline pain threshold was measured. One hour later, the animals were administered with 5 ml/kg i.p. of vehicle (PB) only and pain threshold was re-established. After an additional hour animals were treated with various doses of compound 18F ranging from 0.5 mg/kg up to 10 mg/kg administered i.p. Morphine at 5 mg/kg i.p. and gabapentin at 100 mg/kg i.p served as positive controls. Each treatment group comprised at least eight animals. One hour post drug administration pain threshold was monitored using thermal and mechanical stimuli as previously described. At the end of the study, rats were euthanized with sodium pentobarbitone 100 mg/kg i.p. Sample rats were then transfused with saline and heparinized 4% formaldehyde solution. The L4-L5 area of the spinal cord and the sciatic nerve were taken for histopathology assessment.
The time latencies for thermal hyperalgesia, and force needed to induce pain of the different treatment groups are compared, using one way ANOVA (analysis of variance), followed by Duncan's post hoc test. A p<0.05 value was considered statistically significant and is indicated on the figure by an asterisk over the relevant treatment group.

In general, inhibition refers to the drop in the measured response relative to a control, in per cent. Regarding `CCCCCCC(C)(C)c1cc(O)c([C@H]2CC(=O)C3CC2C3(C)C)c(OC(=O)/C=C/C(=O)O)c1` (single isomer, unassigned; (-)) [Compound 18F, (−)-4-{4-[1,1-Dimethylheptyl]-2-fumarate-6-hydroxy-phenyl}-6,6-dimethyl-bicyclo[3.1.1]heptan-2-one], the “Fold gene expression IFN-γ, Spinal Cord, Treated” value in the test on IFN-γ is given as 3 fold. Also, in the test on IFN-γ (untreated −9), the “Fold gene expression IFN-γ, Brain, Treated” value is 1* fold. Besides, in the test on TNF-α, the “Fold gene expression TNF-α, Brain, Treated” value stood at 2.5 fold and the “Fold gene expression TNF-α, Spinal Cord, Treated” value is 15 fold. In addition, the “Fold gene expression MCP-1, Brain, Treated” value with MCP-1 is listed as 5.5 fold. In the test with MCP-1 (untreated 19), the “Fold gene expression MCP-1, Spinal Cord, Treated” value was 68 fold. The “genes down-regulated or up-regulated by more than 1.5 fold upon treatment” value with 400 Gene Array is on record as “twenty”. In the test on RAW 264.7 macrophages, testing at 10 µM gave an inhibition of 61%. Also, the “effect on pain threshold” value in test [1] (10 mg/kg i.p., baseline 15 gm, untreated 5 gm) is given as “increased the pain threshold back to pre-Taxol® baseline”. Also, the “effect on pain threshold versus vehicle” value in test [1] (1, 5 and 10 mg/kg i.p.) is recorded as “statistically significant from the vehicle treated animals”.

These data come from patent US20090068143A1, “ORALLY EFFECTIVE C[…]” (priority 2005, published 2009).
